Results published in patent publication US4939124A, “Treatment and diagnosis of dementia” (Laboratorios Serono S.A., priority 1988, dated 1990).
No end group written: not given here.

Key:
Male Wistar rats [1] = experiment: Locomotor activity in open field paradigm (OUCEM-86), i.c.v. injection; type: in vivo; settings: for ED50 of change in LA / Emax of change in LA (given as a dose): i.c.v., dose range 0.1 to 10 mcg
Excerpt: (§1) To clarify whether SS and GRF display at the central level the same antagonistic effect that they have at the pituitary level, the effects of these neuropeptides on several behavioral parameters have been studied using the OUCEM-86^TM (Osaka University Computerized Electronic Maze). The system is integrated by the following components: a Programmable Electronic Platform (PEP) (620×620 mm) equipped with 48 photo beam sensors (OPX-T30); a Programming Panel (PP) (Model BECM-0064) for paradigm stimulation; a Shock Generator Scrambler (SGS) (Model BSG-1065) to apply continuous or discontinuous electric current to the PEP; a Control Station (CS) (BEC 16-Bio Computer Control Station BCS-1105; Bio Medica, Ltd., Osaka) which processes inputs/outputs as an interface device to automatically computerize behavioral parameters; and a Computer System (NEC PC-9801 VM2) with 1 megabyte Random Access Memory (RAM) for data processing and experimental setting.
(§2) Male Wistar rats (175-200 g) (N =5-8 rats/group) received intracerebroventricular (i.c.v.) injections of GRF1-44 and SS-14 over a range of 0.1 to 10 mcg. Then the rats were studied in the OUCEM under two different paradigms (e.g., open field and maze paradigms).
The animals were placed in the PEP for 30-minute periods and locomotor activity (LA) was automatically recorded in an open field paradigm. Total LA is represented as total inputs (I/O) including movements in four-footed position (4F) and in two-footed position (2F), grooming, rearing and jumping activity, while linear (horizontal) movements (4F) are represented as pulses per minute (pm) or cm^2 /min

[2] = system: female in-patients with primary degenerative dementia (Alzheimer like); experiment: 8-day GRF (1-29) NH2 therapy, MMS Folstein test and Crichton's scale; type: in vivo, human; settings: MMS-Folstein test and Crichton's scale test
Description: Twenty female in-patients with primary degenerative dementia (Alzheimer like) aged 67-84 years were divided in two therapy-groups with GRF (1-29) NH2. All patients were treated with this product for 8 days with either of the following schedules: (I) 250 mcg s.c. twice daily (II) 50 mcg i.v. twice daily Therapy was started after a 15-day wash-out period for psychotropic-drugs. Evolution of patients was assessed using the MMS Folstein test and Chrichton's scale test at 12 hours, 24 hours and 7 days after starting with GRF. The statistical evaluation was made using Friedman test with a risk level p<0,01 (highly significant differences).

Male Wistar rats [3] = experiment: Locomotor activity and learning in maze paradigm (escape from 1.5 mA shock area), i.c.v. injection; type: in vivo
Description: The animals had to learn to escape from the shock area in order to avoid a continuous 1.5 mA electric shock. Experimental time --30 minutes.
The rats were treated intracerebroventricularly with SS-14 (1 mcg) and GRF1-44 (1 mcg) and their behavior was automatically recorded by computer using the maze paradigm shown in FIG. 1. p/t denotes pulses per time unit (minute). Locomotor activity was quantified in pulses per minute or cm^2 /min. Total inputs (I/O) in neutral position (white bars) and shock position (black bars) denote how many times the animals enter neutral and shock areas. The N/S ratio results from dividing I/O in neutral position by I/O in shock position and is interpreted as an index of learning in the 30-minute experimental period. The positional time (seconds) represents how long the animals stay in neutral (white bars) or shock (black bars) areas. N-sp and S-sp (in seconds) indicate the time-latency per movement or input in neutral (white bars) and shock (black bars) areas, respectively.
as §1, §2
The amount of inputs (I/O) induced by SS was 103.5±29.5 (control =216.25±55.19, t=8.49, p<0.005) in the neutral area (NA) and 77.14±13.5 I/O in the shock area (SA) (control =298±40, t=1.26, n.s.). GRF generated 459.35±32.5 I/O in NA (t=18.13, p<0.005) and 340.5±63.5 I/O in SA (t=9.07, p<0.005) (FIGS. 1C,3). The NA/SA (N/S) ratios for control, SS- and GRF-treated rats were 0.72, 1.33, and 1.35, respectively (FIG. 2).

Row | Compound | ED50 of change in LA (Male Wistar rats [1]) [pmol] | Emax of change in LA (given as a dose) (Male Wistar rats [1]) [nmol] | overall effect confirmed by re-evaluation after end of administration [2] | locomotor activity (LA), maze paradigm (Male Wistar rats [3]; 1 mcg i.c.v., 30 minutes, control 17.12±5.42 pm) [pm] | NA/SA (N/S) ratio (index of learning) (Male Wistar rats [3]; 1 mcg i.c.v., control 0.72) | amount of inputs (I/O) in the neutral area (NA) (Male Wistar rats [3]; 1 mcg i.c.v., control 216.25±55.19) [I/O] | amount of inputs (I/O) in the shock area (SA) (Male Wistar rats [3]; 1 mcg i.c.v., control 298±40) [I/O] | learning abilities (N/S ratio as index) (Male Wistar rats [3]; doses of approximately 6.10×10^-10 mol (SS) and 1.98×10^-10 mol (GRF), i.c.v.) | comparison of SS and GRF in improving learning (Male Wistar rats [3]; maze paradigm, i.c.v.) | locomotor activity (LA), open field (Male Wistar rats [1]; 1 mcg i.c.v. (SS-14 / GRF1-44), 30-minute period, control 31.16±6.90 pm) [pm]
1 | GRF1-29: 1-29 segment of growth hormone releasing factor | 297 | 5.95 | – | – | – | – | – | – | – | –
2 | GRF (1-29) NH2: GRF product given s.c. or i.v. to dementia patients; called GRF in Example 3 (YADAIFTNSYRKVLGQLSARKLLQDIMSR-NH2; UniProt P01286 32-60, looked up, fragment) | – | – | significant effect | – | – | – | – | – | – | –
3 | GRF1-44: 1-44 segment of growth hormone releasing factor, injected i.c.v. in rats; called GRF in Examples 1-2 | 99.1 | 1.98 | – | – | – | – | – | – | – | –
4 | C[C@H](N)C(=O)NCC(=O)N[C@H]1CSSC[C@@H](C(=O)O)NC(=O)[C@H](CO)NC(=O)[C@H]([C@@H](C)O)NC(=O)[C@H](Cc2ccccc2)NC(=O)[C@H]([C@@H](C)O)NC(=O)[C@H](CCCCN)NC(=O)[C@H](Cc2c[nH]c3ccccc23)NC(=O)[C@H](Cc2ccccc2)NC(=O)[C@H](Cc2ccccc2)NC(=O)[C@H](CC(N)=O)NC(=O)[C@H](CCCCN)NC1=O [SS, somatostatin] | 1830 | 6.10 | – | 6.01±1.45 | 1.33 | 103.5±29.5 | 77.14±13.5 | improve learning abilities | more effective than GRF in improving learning | 20.88±2.82
